# From patent US6448269B1 (Eli Lilly and Company, priority 1993, dated 2002)
# Where a name gives a salt, the structure may show the parent alone.
# System: human platelet-rich plasma
# Assay: Platelet aggregation assay (Aggregation-Human PRP/ADP)
# Type: cell-based
# Conditions: 1 min; human platelet-rich plasma incubated with compound 1 minute at 37° C.; ADP-induced aggregation; read-out: Agg: Human PRP/ADP IC50uM
# Experimental: Platelet-rich plasma was prepared from healthy human volunteers for use in determining inhibition of platelet aggregation by the compounds.
# Platelet-rich plasma was prepared at room temperature by centrifugation of the citrated whole blood at 100×g for 12 minutes. The platelet rich plasma contained approximately 200-400,000 platelets/μl.
# Platelet-poor plasma was prepared by centrifugation of citrated whole blood at 12,000×g for 2 minutes.
# Platelet aggregation was assayed in a 4-channel platelet aggregation profiler (PAP-4, Biodata, Hatboro, Pa.) according to the manufacturers directions. Inhibition of platelet aggregation was studied by adding varying amounts of […] to stirred human platelet-rich plasma. Specifically, the human platelet-rich plasma was incubated with the compound being tested for 1 minute at 37° C. prior to the addition of a variety of aggregating agents most often ADP 5 μM, but also 1 μg/ml collagen, 1 μM U46619 and 0.3 μM platelet activating factor.
row,SMILES,IC50 [µM]
1,"CCCCCCNC(=O)C(CC(=O)O)N1CCc2cc(OCc3ccc(C(=N)N)cc3)ccc2C1=O (racemic) [Example 5, (+−)-6-[[4-(Aminoiminomethyl)phenyl]methoxy]-3,4-dihydro-1-oxo-beta[hexylamino Carbonyl]-2(1H)-isoquinolone Propanoic Acid Trifluoroacetate]",7
2,"CCOC(=O)CC1CCc2cc(OCc3ccc(C(=N)N)cc3)ccc2O1 (racemic) [Example 45, Hydrochloride]",11
3,"NC(=O)c1ccc(C(=O)Nc2ccc3c(c2)CCC(CC(=O)O)O3)cc1 (racemic) [Example 49, rac-(6-(N-(4-Carbamoylbenzoyl)amino)-3,4-dihydro-2H-1-benzopyran-2-yl)acetic Acid]",100
4,"CCOC(=O)CCC1(C)C=Cc2cc(OCc3ccc(C(=N)N)cc3)ccc2O1 (racemic) [Example 52, Hydrochloride]",100
5,"O=C(O)CC1CCc2cc(OCCCCC3CCNCC3)ccc2O1 (racemic) [Example 54, rac-(3,4-Dihydro-6-(4-(piperidin-4-yl)butoxy)-2H-1-benzopyran-2-yl)acetic Acid Trifluoroacetate]",12
6,"CCOC(=O)CC1CCc2cc(NC(=O)c3ccc(C(=N)N)cc3Cl)ccc2C1=O (racemic) [Example 62, Hydrochloride]",6.8
7,"CCOC(=O)CCC1(C)CC(=O)c2cc(OCc3ccc(C(=N)N)cc3)ccc2O1 (racemic) [Example 66, Hydrochloride]",> 100
8,"CC1(CCC(=O)O)CC(=O)c2cc(OCc3ccc(C(=N)N)cc3)ccc2O1 (racemic) [Example 67, Hydrochloride]",29
9,"CCOC(=O)CC1CCc2cc(NC(=O)c3ccc(C(=N)N)cc3Cl)ccc2O1 (racemic) [Example 75, acetate Hydrochloride]",1.8
10,"CCOC(=O)CC1CCc2cc(NC(=O)/C=C/C3CCNCC3)ccc2O1 (racemic) [Example 77, Ethyl rac-(3,4-Dihydro-6-(N-(3-(piperidine-4-yl)propenoyl)amino)-2H-1-benzopyran-2-yl)acetate Trifluoroacetate]",1.3
11,"CCOC(=O)CC1CC(C)(C)c2cc(NC(=O)c3ccc(C(=N)N)cc3)ccc2O1 (racemic) [Example 79, Hydrochloride]",> 100
12,"CC1(C)CC(CC(=O)O)Oc2ccc(NC(=O)c3ccc(C(=N)N)cc3)cc21 (racemic) [Example 80, rac-(6-(N-(4-(Aminoiminomethyl)benzoyl)amino)-3,4-dihydro-4,4-dimethyl-2H-1-benzopyran-2-yl)acetic Acid]",> 100
13,"CCCNC(=N)c1ccc(C(=O)Nc2ccc3c(c2)CCC(CC(=O)OCC)O3)cc1 (racemic) [Example 81, Hydrochloride]",0.39
14,"CCCCNC(=N)c1ccc(C(=O)Nc2ccc3c(c2)CCC(CC(=O)OCC)O3)cc1 (racemic) [Example 83, Hydrochloride]",0.14
15,CCCOC(=O)NC(=N)c1ccc(C(=O)Nc2ccc3c(c2)CCC(CC(=O)OCC)O3)cc1 (racemic) [Example 85],> 100
16,"CCCOC(=O)CC1CCc2cc(NC(=O)c3ccc(C(=N)N)cc3)ccc2O1 (racemic) [Example 86, hydrochloride]",0.078
17,"COC(=O)CC1CCc2cc(NC(=O)c3ccc(C(=N)N)cc3)ccc2O1 (racemic) [Example 87, Hydrochloride]",0.084
18,"CCOC(=O)CC1CCc2cc(NC(=O)c3ccc(C(=N)NCc4ccccc4)cc3)ccc2O1 (racemic) [Example 92, Ethyl rac-(3,4-Dihydro-6-(N-(4-(N′-(phenylmethylamino)iminomethyl)benzoyl)amino)-2H-1-benzopyran-2-yl)acetate Hydrochloride]",0.24
19,"N=C(N)NCc1ccc(COc2ccc3c(c2)CCN(CC(=O)O)C3=O)cc1 [Example 21, 6-[[4-(Guanidinomethyl)phenyl]methoxy]-3,4-dihydro-1-oxo-2(1H)-isoquinoline Acetic Acid Trifluoroacetate]",> 100
20,N=C(N)c1ccc(C(=O)Nc2ccc3c(c2)CCC(CC(=O)O)C3=O)cc1 (stereo not drawn) [Example 30],0.06

# Biological target: T1, GPIIb-IIIa (Homo sapiens, UniProt P05106+P08514)
# T1 construct: Purified platelet GPIIb-IIIa receptor was prepared as described by Fitzgerald; from tissue; host or cells: platelets
# T1 sequence (P08514 32-887 limits assumed): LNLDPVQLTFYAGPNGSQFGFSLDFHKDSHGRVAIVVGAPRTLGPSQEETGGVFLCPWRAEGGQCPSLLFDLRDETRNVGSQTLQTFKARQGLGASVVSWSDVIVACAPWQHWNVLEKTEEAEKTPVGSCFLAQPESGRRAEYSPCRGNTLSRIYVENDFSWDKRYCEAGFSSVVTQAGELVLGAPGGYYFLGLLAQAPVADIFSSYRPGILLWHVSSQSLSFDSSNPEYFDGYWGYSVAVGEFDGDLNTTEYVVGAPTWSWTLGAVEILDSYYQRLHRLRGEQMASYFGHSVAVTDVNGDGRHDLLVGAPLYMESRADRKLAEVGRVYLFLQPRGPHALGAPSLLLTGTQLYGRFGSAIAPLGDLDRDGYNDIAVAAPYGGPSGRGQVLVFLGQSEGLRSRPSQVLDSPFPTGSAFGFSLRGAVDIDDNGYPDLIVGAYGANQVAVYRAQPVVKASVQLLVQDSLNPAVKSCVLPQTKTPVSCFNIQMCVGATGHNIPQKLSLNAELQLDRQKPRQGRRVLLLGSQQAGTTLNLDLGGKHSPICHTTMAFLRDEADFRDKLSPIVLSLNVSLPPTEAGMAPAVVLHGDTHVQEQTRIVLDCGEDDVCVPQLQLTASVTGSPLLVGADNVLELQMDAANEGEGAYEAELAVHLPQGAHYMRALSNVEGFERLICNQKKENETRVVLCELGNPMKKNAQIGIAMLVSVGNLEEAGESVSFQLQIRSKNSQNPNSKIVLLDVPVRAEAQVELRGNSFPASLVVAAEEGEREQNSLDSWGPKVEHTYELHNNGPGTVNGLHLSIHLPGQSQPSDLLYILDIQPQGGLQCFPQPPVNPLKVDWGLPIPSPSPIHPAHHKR
# T1 sequence (P05106 27-788): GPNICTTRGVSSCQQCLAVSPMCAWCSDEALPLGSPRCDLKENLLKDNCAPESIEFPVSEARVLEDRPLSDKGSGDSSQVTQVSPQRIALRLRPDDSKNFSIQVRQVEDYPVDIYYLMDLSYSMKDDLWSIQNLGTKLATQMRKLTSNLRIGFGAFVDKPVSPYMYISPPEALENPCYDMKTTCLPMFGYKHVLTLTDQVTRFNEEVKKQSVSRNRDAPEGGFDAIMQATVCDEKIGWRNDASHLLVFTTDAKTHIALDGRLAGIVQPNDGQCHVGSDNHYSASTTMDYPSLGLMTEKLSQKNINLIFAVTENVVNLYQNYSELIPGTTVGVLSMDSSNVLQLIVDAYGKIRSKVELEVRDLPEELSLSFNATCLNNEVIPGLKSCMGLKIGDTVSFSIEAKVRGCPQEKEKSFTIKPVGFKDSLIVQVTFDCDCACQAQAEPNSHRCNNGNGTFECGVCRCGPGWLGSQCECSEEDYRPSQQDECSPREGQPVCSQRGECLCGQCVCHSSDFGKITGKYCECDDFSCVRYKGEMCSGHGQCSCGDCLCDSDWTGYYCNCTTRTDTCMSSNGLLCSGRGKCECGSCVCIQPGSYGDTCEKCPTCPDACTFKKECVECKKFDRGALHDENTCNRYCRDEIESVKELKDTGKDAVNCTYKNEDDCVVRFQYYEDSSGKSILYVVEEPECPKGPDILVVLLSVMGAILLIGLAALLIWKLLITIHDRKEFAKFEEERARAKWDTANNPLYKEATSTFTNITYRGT
# Assay: ELISA IIb-IIIa assay (fibrinogen binding to immobilized GPIIb-IIIa)
# Conditions: purified platelet GPIIb-IIIa receptor coated on ELISA plates; biotin-labeled fibrinogen 10 nM, 3 hours at 25° C.
# Experimental: In the following assay, GPIIb-IIIa is prepared in purified form, by a method such as described by Fitzgerald, L. A., et al., Anal Biochem (1985) 151:169-177, (the disclosure of which is incorporated herein by reference). GPIIb-IIIa is coated onto microtiter plates. The coated support is then contacted with fibrinogen and with the test material (e.g., compounds of Formula I) and incubated for a sufficient time to permit maximal binding of fibrinogen to the immobilized GPIIb-IIIa. Fibrinogen is typically provided at a concentration of about 5-50 nM and the test material can, if desired, be added at a series of dilution. Typical incubations are 2 to 4 hours at 25° C., the time and temperature being interdependent.
# After incubation, the solution containing the fibrinogen and test material is removed and the level of binding of fibrinogen measured by quantitating bound fibrinogen to GPIIb-IIIa. Any suitable means of detection may be used, but it is convenient to employ labeled fibrinogen, for example using biotinylated labels. Such methods are well known in the art.
# Purified platelet GPIIb-IIIa receptor was prepared as described by Fitzgerald, L. A., et al., Anal Biochem (1985) 151:169-177 (1985). Vitronectin receptor was prepared as described by Smith, J. W., J. Biol Chem (1988) 263:18726-18731. After purification, the receptors were stored in 0.1% Triton X-100 at 0.1-1.0 mg/ml.
# The receptors were coated to the wells of 96-well flat-bottom ELISA plates (Linbro EIA-Plus microtiter plate, Flow Laboratories) after diluting 1:200 with a solution of 20 mM Tris-HCl, 150 mM NaCl, 1 mM CaCl2, pH 7.4, to reduce the Triton X-100 concentration to below its critical micellar concentration and adding an aliquot of 100 ul to each well. The wells were all allowed to incubate overnight at 4° C., and then aspirated to dryness. Additional sites were blocked by the addition of bovine serum albumin (BSA) at 35 mg/ml in the above buffer for 2 hours at 30° C. to prevent nonspecific binding. The wells were then washed once with binding buffer ([…] Tris-HCl, 100 mM NaCl 2 mM CaCl2, 1 mg/ml BSA).
# The corresponding ligands (fibrinogen, von Willebrand Factor, or vitronectin) were conjugated to biotin using commercially available reagents and standard protocols. The labeled ligands were added to the receptor-coated wells at final concentration of 10 nM (100 ul/well) and incubated for 3 hours at 25° C. in the presence or absence of the test samples. After incubation, the wells are aspirated to dryness and bound ligand is quantitated.
# The bound protein is detected by the addition of antibiotin antibody conjugated to alkaline phosphatase followed by addition of substrate (p-nitrophenyl phosphate), and determination of the optical density of each well at […]. Decreased color development is observed in wells incubated with test samples which inhibit binding of ligand to receptor.
row,SMILES,IC50 [nM]
1,"CCCCCCNC(=O)C(CC(=O)O)N1CCc2cc(OCc3ccc(C(=N)N)cc3)ccc2C1=O (racemic) [Example 5, (+−)-6-[[4-(Aminoiminomethyl)phenyl]methoxy]-3,4-dihydro-1-oxo-beta[hexylamino Carbonyl]-2(1H)-isoquinolone Propanoic Acid Trifluoroacetate]",33
2,CCOC(=O)CC1CCc2cc(NC(=O)c3ccc(C(=N)NC(=O)OCC)cc3)ccc2O1 (racemic) [Example 68],> 1000
3,O=C(O)CNC1CCc2cc(OCCCC3CCNCC3)ccc2C1 (stereo not drawn) [Example 25],220
4,N=C(N)c1ccc(COc2ccc3c(c2)CCC(NCC(=O)O)C3)cc1 (stereo not drawn) [Example 26],520
5,CC(=O)N(CC(=O)O)C1CCc2cc(OCc3ccc(C(=N)N)cc3)ccc2C1 (stereo not drawn) [Example 27],110
6,N=C(N)c1ccc(COc2ccc3cc(CC(=O)O)ccc3c2)cc1 [Example 33],5
7,N=C(N)c1ccc(COc2ccc3c(c2)CCN(C(=O)C(=O)O)C3)cc1 [Example 44],160
